Tested on: N-myc protein
Assay: In-cell immunostaining assay for decrease of N-myc protein level in neuroblastoma cells
Assay type: cell-based
Conditions: human neuroblastoma cell lines (Kelly, IMR32, SK-N-BE(2)); treated overnight or up to 3 days; N-myc signal normalized over total protein; read-out: Activity (EC50 for decreasing N-myc protein level)
Protocol: Human neuroblastoma cell lines were obtained from either Millipore Sigma, St. Louis, MO (Kelly cells) or American Type Culture Collection, Manassas, VA (IMR32 and SK-N-BE(2) cells). Cells were cultured in RPMI1640 medium (Corning, New York, NY), supplemented with 10% fetal bovine serum, 100 unit/mL penicillin and 100 μg/mL streptomycin (Corning, New York, NY) at 37 degree Celsius with 5% CO2 in air atmosphere. Cells cultured in flat clear bottom, black 96-well plates (Corning, New York, NY) were treated with different concentrations of a compound of the invention, which was dissolved in the culture media (200 μL/well), overnight or up to 3 days. Cells were fixed with 4% paraformaldehyde (in Phosphate-Buffered Saline or PBS, 100 μL/well) for 30 minutes at room temperature. Cells were briefly washed three times with PBS afterwards, and then treated with PBS containing 0.1% Triton X-100 (100 μL/well) for 30 minutes at room temperature. For […], cells were further treated with PBS containing 0.01% IRDye 700DX NHS Ester (LI-COR Biosciences, Lincoln, NE. 100 μL/well) for 30 minutes at room temperature. Cells were again washed three times with PBS, and then treated with a Tris-buffered saline solution with 0.1% Tween 20 (TBST) and 5% non-fat milk (50 μL/well) for 1 hour at room temperature. Cells were then treated with TBST with 5% non-fat milk (50 μL/well) containing a mouse anti N-Myc antibody (Clone B8.4.B, 1:500 dilution, Santa Cruz Biotechnology, Santa Cruz, CA), or a combination of a rabbit anti-Histone H3 (phospho S10) antibody (Clone EPR17246, 1:10000 dilution, abcam, Cambridge, MA) and a mouse anti-Histone H3 antibody (Clone 1G1, 1:250 dilution, Santa Cruz Biotechnology, Santa Cruz, CA) overnight at 4 degree Celsius in the dark. Cells were washed three times with TBST, and then treated with TBST with 5% non-fat milk (50 μL/well) containing an IRDye 800CW donkey anti-mouse IgG antibody (1:1000 dilution, LI-COR Biosciences, Lincoln, NE) for N-myc staining, or IRDye® 800CW donkey anti-rabbit IgG and IRDye 680RD donkey anti-mouse IgG antibodies (1:1000 dilution, LI-COR Biosciences, Lincoln, NE) for Histone H3 (phospho S10) and Histone H3 staining, incubated for 1 hour at room temperature in the dark. Cells were then washed four times with TBST and the plate was scanned using an Odyssey 9120 Imaging System (LI-COR Biosciences, Lincoln, NE). Signals for N-myc, total protein, Histone H3 (phospho S10), and Histone H3 were obtained from the images using the ImageStudio software (Version 4.0.21, LI-COR Biosciences, Lincoln, NE). Normalized signals for N-myc (over total protein), and Histone H3 (phospho S10) (over Histone H3) were plotted in Prism 7 software (GraphPad Software, San Diego, CA). A four-parameter dose-response curve was fitted using a variable slope model and the EC50 was calculated in Prism 7 software (GraphPad Software, San Diego, CA).

| Compound | EC50 |
| --- | --- |
| Cc1nc(NC(=O)C2(C(=O)Nc3cc(Cl)cc(C(F)(F)F)c3)CC2)sc1C(=O)Nc1cc(C(F)(F)F)ccc1Cl [SSTA-0251, N-(3-chloro-5-(trifluoromethyl)phenyl)-N-(5-((2-chloro-5-(trifluoromethyl)phenyl)carbamoyl)-4-methylthiazol-2-yl)cyclopropane-1,1-dicarboxamide] | 250 to 1000 nM |
| Cc1nc(NC(=O)C2(C(=O)Nc3cc(F)ccn3)CC2)sc1C(=O)Nc1cc(C(F)(F)F)ccc1Cl [SSTA-0252, N-(5-((2-chloro-5-(trifluoromethyl)phenyl)carbamoyl)-4-methylthiazol-2-yl)-N-(4-fluoropyridin-2-yl)cyclopropane-1,1-dicarboxamide] | > 1000 nM |
| COCc1nc(NC(=O)C2(C(=O)Nc3ccc(Cl)c(F)c3)CC2)sc1C(=O)Nc1cc(C(F)(F)F)ccc1Cl [SSTA-0262, N-(4-chloro-3-fluorophenyl)-N-(5-((2-chloro-5-(trifluoromethyl)phenyl)carbamoyl)-4-(methoxymethyl)thiazol-2-yl)cyclopropane-1,1-dicarboxamide] | 250 to 1000 nM |
| O=C(Nc1cc(C(F)(F)F)ccc1Cl)c1sc(NC(=O)C2(C(=O)Nc3cc(F)cc(F)c3)CC2)nc1C1CC1 [SSTA-0263, N-(5-((2-chloro-5-(trifluoromethyl)phenyl)carbamoyl)-4-cyclopropylthiazol-2-yl)-N-(3,5-difluorophenyl)cyclopropane-1,1-dicarboxamide] | < 250 nM |
| O=C(Nc1cc(C(F)(F)F)ccc1Cl)c1sc(NC(=O)C2(C(=O)Nc3cc(F)cc(C(F)(F)F)c3)CC2)nc1C1CC1 [SSTA-0264, N-(5-((2-chloro-5-(trifluoromethyl)phenyl)carbamoyl)-4-cyclopropylthiazol-2-yl)-N-(3-fluoro-5-(trifluoromethyl)phenyl)cyclopropane-1,1-dicarboxamide] | < 250 nM |
| N-(5-((2-chloro-5-(trifluoromethyl)phenyl)carbamoyl)-4-methylthiazol-2-yl)-N-(3-fluoro-5-(trifluoromethyl)phenyl)cyclopropane-1,1-dicarboxamide [SSTA-0233] | 250 to 1000 nM |
